What is called IC50 is the concentration that inhibits the measured activity by half. A low value points to higher potency.

The nature of test [1]: Antiproliferative activity against human WI38 cells after 72 hrs by MTT assay. Format: cell-based. To be noted: WI-38, 72 h. For orientation: Tetrazolium assays rely on reduction of a dye to a coloured formazan, in cell work by metabolically active cells.
A short description of test [2]: Binding affinity to poly A-poly U 0.05 mol/dm^3 by UV/vis titration.
Test [3] deals with MIA PaCa-2. In words: Effect on cell cycle in human MiaPaCa2 cells assessed as accumulation at S phase at 5 uM after 48 hrs by […]. It is filed as functional.
In test [4] the test system is HeLa. In words: Antiproliferative activity against human HeLa cells after 72 hrs by MTT assay. It is filed as functional, cell-based.
The subject of test [5] is MIA PaCa-2. In words: Effect on cell cycle in human MiaPaCa2 cells assessed as accumulation at sub-G1 phase at 5 uM after 72 hrs by Annexin-V assay. It is filed as functional.
In test [6] the test system is MIA PaCa-2. In words: Antiproliferative activity against human MiaPaCa2 cells after 72 hrs by MTT assay a. It is filed as functional, cell-based. To be noted: MIA PaCa-2, 72 h.
Test [7] can be described thus: Binding affinity to poly dA-poly dT 0.05 mol/dm^3 by UV/vis titration.
The subject of test [8] is MIA PaCa-2. In words: Effect on cell cycle in human MiaPaCa2 cells assessed as accumulation at G2/M phase at 5 uM after 48 hrs by […]. Format: functional.
Test [9] concerns MIA PaCa-2. In words: Effect on cell cycle in human MiaPaCa2 cells assessed as accumulation at S phase at 5 uM after 72 hrs by […]. Format: functional.
The subject of test [10] is MIA PaCa-2. In words: Effect on cell cycle in human MiaPaCa2 cells assessed as accumulation at sub-G1 phase at 5 uM after 24 hrs by […]. It is filed as functional.
The test system of test [11] is MIA PaCa-2. Put plainly: Effect on cell cycle in human MiaPaCa2 cells assessed as accumulation at G1/G0 phase at 5 uM after 72 hrs by […]. Format: functional.
The nature of test [12]: Binding affinity to poly A-poly U 0.15 mol/dm^3 by UV/vis titration.
The subject of test [13] is MIA PaCa-2. In words: Effect on cell cycle in human MiaPaCa2 cells assessed as accumulation at G2/M phase at 5 uM after 24 hrs by […]. Format: functional.
Test [14] has as its system MIA PaCa-2. Put plainly: Effect on cell cycle in human MiaPaCa2 cells assessed as accumulation at G1/G0 phase at 5 uM after 48 hrs by […]. It is filed as functional.
Test [15] is described as follows: Binding affinity to poly dA-poly dT 0.15 mol/dm^3 by UV/vis titration.
A short description of test [16]: Binding affinity to poly G-poly C 0.05 mol/dm^3 by UV/vis titration.
In test [17] the test system is MIA PaCa-2. Put plainly: Effect on cell cycle in human MiaPaCa2 cells assessed as accumulation at G1/G0 phase at 5 uM after 24 hrs by […]. It is filed as functional.
The subject of test [18] is MIA PaCa-2. In words: Effect on cell cycle in human MiaPaCa2 cells assessed as accumulation at G2/M phase at 5 uM after 72 hrs by […]. It is filed as functional.
For test [19], the system named is MCF7. Put plainly: Antiproliferative activity against human MCF7 cells after 72 hrs by MTT assay. Format: functional, cell-based. To be noted: MCF7, 72 h.
In test [20] the test system is MIA PaCa-2. In words: Effect on cell cycle in human MiaPaCa2 cells assessed as accumulation at sub-G1 phase at 5 uM after 48 hrs by Annexin-V assay. Format: functional.
Test [21] concerns SW-620. Put plainly: Antiproliferative activity against human SW620 cells after 72 hrs by MTT assay. Format: functional, cell-based. Conditions: SW-620, 72 h.
Test [22] deals with HEp-2. Put plainly: Antiproliferative activity against human Hep2 cells after 72 hrs by MTT assay. Conditions: HEp-2, 72 h. Format: functional, cell-based.
In test [23] the test system is MIA PaCa-2. Put plainly: Effect on cell cycle in human MiaPaCa2 cells assessed as accumulation at S phase at 5 uM after 24 hrs by […]. Format: functional.

Consider `C1=C(CCC[n+]2ccccc2)\C=N\c2ccccc2N/C=C(CCC[n+]2ccccc2)\C=N\c2ccccc2N/1.[Br-].[Br-]`, for which the IC50 amounted to 10 µM in [1]; 2 µM in test [4]; 1.2 µM in test [6]; 6 µM in test [19]; 18.5 µM in test [21]; 11 µM in test [22]. For the same compound, the log Ks came out at 5.19 in test [2]; 6.1 in test [7]; 5.4 in test [12]; 4.77 in test [15]; 4.2 in test [16]. For the same compound, the Activity in [3] came to 17.538%; in [5], 40%; in [8], 16.38%; in test [9] it was 31.03%; in [10], 9.2%; in test [11] it was 58.34%. For the same compound, the Activity in test [13] turned out to be 24.054%; in [14], 65.59%; in test [17], 47.56%; in [18], 10.7%; in test [20] it was 11%; in test [23] it was 28.4%.

Consider `C[n+]1ccc(CCC(=O)OCCCC2=C/Nc3ccccc3/N=C/C(CCCOC(=O)CCc3cc[n+](C)cc3)=C\Nc3ccccc3\N=C\2)cc1.[Br-].[Br-]`, for which the IC50 came to 4 µM in test [1]; 13.5 µM in [4]; 2.6 µM in test [6]; 2.6 µM in [19]; 4 µM in test [21]; 38 µM in test [22]. Also, the log Ks in [2] was 5.9; in [7] it was 5.3; in [16], 6.1. Further, the Activity in [3] was determined as 9.7%; in test [5], 20%; in [8], 10.98%; in test [9], 5.39%; in test [10], 5.3%; in test [11], 84.02%. The Activity in test [13] is reported as 21.76%; in test [14], 79.3%; in test [17] it was 62.32%; in test [18], 10.5%; in test [20] it was 10%; in test [23], 16.29%.

Take `C1=C(CCC[n+]2ccc(-c3ccncc3)cc2)\C=N\c2ccccc2N/C=C(CCC[n+]2ccc(-c3ccncc3)cc2)\C=N\c2ccccc2N/1`: the IC50 in test [1] is above 100 µM; in test [4], above 100 µM; in test [6], above 100 µM; in test [19], at least 100 µM; in test [21] it was above 50 µM; in [22], above 100 µM.

(Values after ChEMBL document CHEMBL1146336, “The dicationic derivatives of DBTAA: Interactions with DNA/RNA and antiproliferative effects on human cell lines” (Bioorg Med Chem, 2007).)
